Laboratory results from patent US5858972A, “Antithrombotic agents and methods of use” (La Jolla Cancer Research Foundation, priority 1996, dated 1999).
≈ marks a conversion by molar mass, not a printed value. Where a SMILES comes first, the peptide text is derived from it. Bridges are numbered along the chain shown (N, C = ends). [ ]: non-standard residue; d: D form. Nle = CCCC[C@H](N)C(=O)O

What was measured:
[1] = test system: platelets (platelet-rich plasma); experiment: ADP-induced platelet aggregation in citrated platelet-rich plasma (low Ca2+); assay type: cell-based; details: human PRP, 10 μM ADP; for IC50, platelet aggregation in citrated plasma: citrated plasma (about 0.18 mM free Ca2+), 37° C.
Description: (§1) This example provides platelet aggregation studies for various peptides of the present invention. The studies compare the effect of the peptide on aggregation in both citrated and heparinized plasma. Because citrate is a chelating agent for calcium ions, the citrated plasma has a low calcium concentration as is characteristic of a clot site. In contrast, heparinized plasma has a calcium concentration similar to that of physiological conditions elsewhere in the blood stream.
(§2) Whole blood was drawn by a licensed phlebotomist from the antecubital vein using a 21 gauge butterfly infusion set and syringe from normal human volunteers. Platelet-rich plasma (PRP) was prepared by centrifuging heparinized (20 Units lithium porcine mucosa heparin/ml whole blood) or citrated (0.38% sodium citrate) whole blood for 12 min. at 200 relative centrifugal force (RCF). Platelet-poor plasma (PPP) is prepared by centrifuging PRP at 750 RCF for 12 min. and collecting the supernatant. Blood cell counts were performed using a Serano Baker automated cell counter. PRP platelet counts were adjusted to 200,000/μl by dilution with PPP. Final plasma free Ca+^2 concentrations were approximately 0.18 mM for citrated plasma and 2.3 mM for heparinized plasma. Platelet aggregation was determined spectrophotometrically utilizing a four channel aggregometer (Chrono-Log 570) by measuring the increase of light transmission through a stirred suspension of PRP maintained at 37° C. Dilutions of the peptides were added to the suspensions and aggregation induced with 10 μM adenosine diphosphate (ADP). Values were expressed as percentage of aggregation in the absence of peptides. This represents the percentage of light transmission standardized to PRP and PPP samples yielding 0% and 100% light transmission respectively.
(§3) Peptide anti-aggregation potencies were determined from dose-responsive curves for the inhibition of the maximum aggregation responses stimulated by high doses of ADP (10 μm). The 50% inhibitory concentration of each peptide (IC50) was determined by regression analysis of these curves.

[2] = molecular target: T1, GP-IIb/IIIa (Homo sapiens, UniProt P05106+P08514); experiment: Platelet aggregation in citrated (low Ca2+) versus heparinized (physiological Ca2+) plasma: apparent affinity for GP-IIb/IIIa; assay type: cell-based; details: 10 μM ADP; for difference in apparent binding affinity for GP-IIb/IIIa at low (citrate) versus higher (heparin) calcium concentration, in words: citrated vs heparinized plasma; for increase (separation) in apparent affinity for GP-IIb/IIIa in low calcium concentration as compared to physiological calcium concentration: citrated plasma (about 0.18 mM Ca2+) vs heparinized plasma (2.3 mM Ca2+)
T1 construct: Platelet-rich plasma (PRP) was prepared by centrifuging heparinized; endogenous in cells; host or cells: human platelets in platelet-rich plasma (citrated or heparinized) from normal volunteers
Description: as §1, §2, §3

T1 sequence (P08514 32-887 limits assumed): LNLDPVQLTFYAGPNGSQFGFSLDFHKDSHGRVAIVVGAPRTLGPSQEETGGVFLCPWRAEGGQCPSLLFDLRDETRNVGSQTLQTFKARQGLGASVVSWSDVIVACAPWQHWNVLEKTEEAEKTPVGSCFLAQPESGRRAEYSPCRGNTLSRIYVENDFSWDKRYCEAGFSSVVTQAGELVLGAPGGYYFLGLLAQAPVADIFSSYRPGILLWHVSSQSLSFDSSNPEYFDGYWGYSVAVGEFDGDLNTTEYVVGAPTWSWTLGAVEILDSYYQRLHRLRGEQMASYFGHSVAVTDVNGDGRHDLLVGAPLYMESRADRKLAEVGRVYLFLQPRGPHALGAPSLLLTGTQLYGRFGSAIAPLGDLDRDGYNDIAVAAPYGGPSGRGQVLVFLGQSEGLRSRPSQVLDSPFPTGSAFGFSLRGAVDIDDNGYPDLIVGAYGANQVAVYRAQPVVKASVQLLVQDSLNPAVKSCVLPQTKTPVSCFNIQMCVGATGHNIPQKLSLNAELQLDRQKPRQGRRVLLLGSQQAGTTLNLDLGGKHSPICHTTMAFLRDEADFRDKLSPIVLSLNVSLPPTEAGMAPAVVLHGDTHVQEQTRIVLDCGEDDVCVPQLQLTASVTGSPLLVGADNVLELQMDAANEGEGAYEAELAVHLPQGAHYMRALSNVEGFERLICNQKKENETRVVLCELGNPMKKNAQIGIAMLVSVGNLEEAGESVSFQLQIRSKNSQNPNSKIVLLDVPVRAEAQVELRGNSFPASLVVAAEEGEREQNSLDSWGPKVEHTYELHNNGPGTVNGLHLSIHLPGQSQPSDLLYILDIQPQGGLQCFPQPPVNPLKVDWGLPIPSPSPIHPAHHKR
T1 sequence (P08514 891-1039 partner limits assumed): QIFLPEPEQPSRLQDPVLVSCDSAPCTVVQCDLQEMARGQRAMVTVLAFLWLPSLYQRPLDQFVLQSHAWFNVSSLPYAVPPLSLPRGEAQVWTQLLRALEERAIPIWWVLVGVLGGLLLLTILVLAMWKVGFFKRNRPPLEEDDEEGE
T1 sequence (P05106 27-788): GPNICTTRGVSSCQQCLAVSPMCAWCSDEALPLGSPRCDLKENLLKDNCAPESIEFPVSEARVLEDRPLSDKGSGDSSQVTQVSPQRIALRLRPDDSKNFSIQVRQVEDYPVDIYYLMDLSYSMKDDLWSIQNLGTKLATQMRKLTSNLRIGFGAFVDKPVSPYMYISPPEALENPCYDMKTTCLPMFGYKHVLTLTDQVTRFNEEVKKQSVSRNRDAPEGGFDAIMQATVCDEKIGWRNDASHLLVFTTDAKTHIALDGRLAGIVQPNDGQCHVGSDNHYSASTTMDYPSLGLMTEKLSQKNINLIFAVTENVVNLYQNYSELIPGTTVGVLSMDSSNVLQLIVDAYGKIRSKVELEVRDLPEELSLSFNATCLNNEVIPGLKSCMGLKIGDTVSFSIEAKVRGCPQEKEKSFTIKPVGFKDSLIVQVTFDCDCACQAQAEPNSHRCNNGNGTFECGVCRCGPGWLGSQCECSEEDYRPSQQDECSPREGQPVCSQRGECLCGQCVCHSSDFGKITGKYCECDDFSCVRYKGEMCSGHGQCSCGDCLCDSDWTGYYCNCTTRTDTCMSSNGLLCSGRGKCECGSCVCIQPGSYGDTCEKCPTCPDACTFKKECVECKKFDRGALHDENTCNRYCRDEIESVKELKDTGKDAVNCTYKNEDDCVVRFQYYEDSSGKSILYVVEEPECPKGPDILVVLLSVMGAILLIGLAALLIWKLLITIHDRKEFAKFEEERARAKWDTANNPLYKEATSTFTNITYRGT

| SMILES | IC50, platelet aggregation in citrated plasma [1] [µg/mL] | increase (separation) in apparent affinity for GP-IIb/IIIa in low calcium concentration as compared to physiological calcium concentration [2] [fold] | inhibitory activity on platelet aggregation stimulated with ADP, in words [1] | difference in apparent binding affinity for GP-IIb/IIIa at low (citrate) versus higher (heparin) calcium concentration, in words [2] |
| --- | --- | --- | --- | --- |
| COc1ccc(C[C@H](NC(=O)[C@H](CC(=O)O)NC(=O)CNC(=O)[C@H](C)NC(=O)[C@@H]2CCCN2C(=O)[C@H](CC(N)=O)NC(=O)[C@H](CS)NC(C)=O)C(=O)N[C@@H](CCCNC(=N)N)C(=O)N[C@@H](CS)C(N)=O)cc1 [SEQ ID NO. 5, Ac-CNPAGD(Y-OMe)RC-NH2] (Ac-CNPAGDY(Me)RC-NH2) | > 370 | – | little to no activity | no difference in their apparent affinity for GP-IIb/IIIa at low versus higher calcium concentration |
| COc1ccc(C[C@@H]2NC(=O)[C@H](CC(=O)O)NC(=O)CNC(=O)[C@H](C)NC(=O)[C@@H]3CCCN3C(=O)[C@H](CC(N)=O)NC(=O)[C@@H](NC(C)=O)CSSC[C@@H](C(N)=O)NC(=O)[C@H](CCCNC(=N)N)NC2=O)cc1 [SEQ ID NO. 2, Ac-CNPAGD(Y-OMe)RC-NH2] (Ac-CNPAGDY(Me)RC-NH2; disulfide 1-9) | 309 (≈ 294 µM) | – | – | a separation between the apparent binding affinity |
| CCCC[C@H](NC(=O)[C@@H]1CCCN1C(=O)[C@H](CC(N)=O)NC(=O)[C@H](CS)NC(C)=O)C(=O)NCC(=O)N[C@@H](CC(=O)O)C(=O)N[C@@H](Cc1ccc(OC)cc1)C(=O)N[C@@H](CCCNC(=N)N)C(=O)N[C@@H](CS)C(N)=O [SEQ ID NO. 6, Ac-CNP(Nle)GD(Y-OMe)RC-NH2] (Ac-CNP[Nle]GDY(Me)RC-NH2) | > 370 | – | little to no activity | no difference in their apparent affinity for GP-IIb/IIIa at low versus higher calcium concentration |

Second part, led by results:

| IC50, platelet aggregation in citrated plasma [1] [µg/mL] | increase (separation) in apparent affinity for GP-IIb/IIIa in low calcium concentration as compared to physiological calcium concentration [2] [fold] | SMILES | inhibitory activity on platelet aggregation stimulated with ADP, in words [1] | difference in apparent binding affinity for GP-IIb/IIIa at low (citrate) versus higher (heparin) calcium concentration, in words [2] |
| --- | --- | --- | --- | --- |
| 43 (≈ 39.3 µM) | 20 | CCCC[C@@H]1NC(=O)[C@@H]2CCCN2C(=O)[C@H](CC(N)=O)NC(=O)[C@@H](NC(C)=O)CSSC[C@@H](C(N)=O)NC(=O)[C@H](CCCNC(=N)N)NC(=O)[C@H](Cc2ccc(OC)cc2)NC(=O)[C@H](CC(=O)O)NC(=O)CNC1=O [SEQ ID NO. 3, Ac-CNP(Nle)GD(Y-OMe)RC-NH2] (Ac-CNP[Nle]GDY(Me)RC-NH2; disulfide 1-9) | – | – |
| 0.2 (≈ 0.176 µM) | 12 | COc1ccc(C[C@@H]2NC(=O)[C@H](CC(=O)O)NC(=O)CNC(=O)[C@H](CCCNC(=N)N)NC(=O)[C@@H]3CCCN3C(=O)[C@H](CC(N)=O)NC(=O)[C@@H](NC(C)=O)CSSC[C@@H](C(N)=O)NC(=O)[C@H](CCCNC(=N)N)NC2=O)cc1 [SEQ ID NO. 8, Ac-CNPRGD(Y-OMe)RC-NH2] | – | – |
